*: point of attachment. 5FAM = O=C1OC2(c3ccc(O)cc3Oc3cc(O)ccc32)c2ccc(C(=O)*)cc21; TQ2 = quencher
System: MMP14 in the HT1080 culture supernatants and the culture medium samples
Test: Evaluation of MMP14 activity of HT1080 culture supernatants, culture media and recovered liquids (exoEasy, qEV) with 96-well plate
Type: biochemical, Human
Settings: for Fluorescence change: after 2 hours; for change in fluorescence intensity after 2 hours: reporter 2.5 μM, 30° C.
Method: The MMP14 activity was evaluated with a 96-well plate (manufactured by Thermo Fisher Scientific Inc., model number: 137101). […] For measurement wavelengths, an excitation wavelength of 485±20 nm and a fluorescence wavelength of 528±20 nm were used.
Human fibrosarcoma HT1080 cells (KAC Co., Ltd.) were cultured in three kinds of cell culture media described later. In addition, 100 mm cell culture Dish (Nunclon Delta Surface) (manufactured by Thermo Fisher Scientific Inc.) was used as a cell culture container.
Each of the culture supernatants was recovered from each of the dishes in a centrifuge tube, and centrifuged at 2,000×g for 10 minutes at 4° C. Each of the supernatants after the centrifugation was recovered in a fresh container with a small amount of the culture medium remaining so as not to incorporate the precipitated cells. Each of the culture supernatants was filtered through a syringe with a 0.22 μm filter (manufactured by Merck KGaA) so that contaminants such as cell fragments were removed. After that, the filtrate was recovered in a fresh container, and stored at 4° C.
From each of the HT1080 culture supernatants described in the section “(Recovery of Culture Supernatant)”, 100 μL of each of the supernatants after centrifugation and 100 μL of each of the supernatants after filtration through a 0.22 μm filter were each aliquoted, and the buffer (4) was added to the aliquots to provide 1 mL of solutions. The concentration of each of the solutions is 1/10 of the concentration of each of the HT1080 culture supernatants.
In addition, for detection of MMP14 activity, 1 mM Custom #1 was diluted with the buffer (4) to prepare a 5 μM MMP14 detection solution.
50 μL of the MMP14 detection solution was added to 50 μL of each of the samples, a reaction was performed at 30° C., and MMP14 activity was evaluated.
Extracellular vesicles were recovered from 3 mL of each of the recovered culture supernatants with exoEasy Maxi Kit. In this case, the recovery was performed according to the protocol included in the kit. From 3 mL of each of the culture supernatants, 450 μL of each of recovered liquids was obtained. Each of the recovered liquids has a concentration 6.67 times the original concentration of each of the culture supernatants. Each of the recovered liquids was diluted 66.7-fold to prepare 100 μL of a sample at 1/10 of the original concentration of each of the culture supernatants.
Extracellular vesicles were recovered from 3 mL of each of the recovered culture supernatants with qEV. In this case, the recovery was performed according to the protocol included in the kit. From 3 mL of each of the culture supernatants, 700 μL of each of fraction recovered liquids in series was obtained. Each of the recovered liquids was used as a sample as it was.

“[5-FAM]GRIGFLRTAK(TQ2)[OH] (5FAM-GRIGFLRTAK(TQ2)-OH) [Custom #1]” was tested, and the Fluorescence change (Culture medium Exo-FBS, HT1080 culture Absent, None (VI)) was 50,117 ΔRFU, the Fluorescence change (Culture medium Exo-FBS, HT1080 culture Present, Centrifugation + filtration (V)) was 45,429 ΔRFU and the Fluorescence change (Culture medium Exo-FBS, HT1080 culture Present, Only centrifugation (IV)) was 46,172 ΔRFU. The Fluorescence change (Culture medium FBS, HT1080 culture Absent, None (III)) was 66,945 ΔRFU, the Fluorescence change (Culture medium FBS, HT1080 culture Present, Centrifugation + filtration (II)) was 65,200 ΔRFU and the Fluorescence change (Culture medium FBS, HT1080 culture Present, Only centrifugation (I)) was 64,773 ΔRFU. The Fluorescence change (Culture medium MEM (×10, supernatant without dilution), HT1080 culture Present, Centrifugation + filtration) was 1,515 ΔRFU, the Fluorescence change (Culture medium MEM (×10, supernatant without dilution), HT1080 culture Present, Only centrifugation) was 2,494 ΔRFU and the Fluorescence change (Culture medium MEM, HT1080 culture Absent, None (IX)) was −311 ΔRFU. The Fluorescence change (Culture medium MEM, HT1080 culture Present, Centrifugation + filtration (VIII)) was 186 ΔRFU, the Fluorescence change (Culture medium MEM, HT1080 culture Present, Only centrifugation (VII)) was −240 ΔRFU and the “change in fluorescence intensity after 2 hours” value (Example 56, exoEasy recovered liquid from the Exo-FBS) was “the fluorescence intensity was changed”. For the same substance, the “change in fluorescence intensity after 2 hours” value (Example 56, exoEasy recovered liquid from the MEM) was “no change in fluorescence intensity was recognized”, the Fluorescence change (exoEasy recovered liquid, Culture medium Exo-FBS, HT1080 culture Present) was 6,663 ΔRFU and the Fluorescence change (exoEasy recovered liquid, Culture medium MEM, HT1080 culture Present) was −313 ΔRFU. The Fluorescence change (qEV recovered liquid, Exo-FBS, HT1080 culture Present, Fraction # 1) was 336 ΔRFU, the Fluorescence change (qEV recovered liquid, Exo-FBS, HT1080 culture Present, Fraction # 2) was 318 ΔRFU and the Fluorescence change (qEV recovered liquid, Exo-FBS, HT1080 culture Present, Fraction # 3) was 271 ΔRFU. The Fluorescence change (qEV recovered liquid, Exo-FBS, HT1080 culture Present, Fraction # 4) was 285 ΔRFU, the Fluorescence change (qEV recovered liquid, Exo-FBS, HT1080 culture Present, Fraction # 5) was 302 ΔRFU and the Fluorescence change (qEV recovered liquid, Exo-FBS, HT1080 culture Present, Fraction # 6) was 325 ΔRFU. The Fluorescence change (qEV recovered liquid, Exo-FBS, HT1080 culture Present, Fraction # 7) was 1,869 ΔRFU, the Fluorescence change (qEV recovered liquid, Exo-FBS, HT1080 culture Present, Fraction # 8) was 7,249 ΔRFU and the Fluorescence change (qEV recovered liquid, Exo-FBS, HT1080 culture Present, Fraction # 9) was 9,417 ΔRFU. For the same substance, the Fluorescence change (qEV recovered liquid, Exo-FBS, HT1080 culture Present, Fraction # 10) was 17,731 ΔRFU, the Fluorescence change (qEV recovered liquid, Exo-FBS, HT1080 culture Present, Fraction # 11) was 30,226 ΔRFU and the Fluorescence change (qEV recovered liquid, Exo-FBS, HT1080 culture Present, Fraction # 12) was 44,826 ΔRFU. The Fluorescence change (qEV recovered liquid, Exo-FBS, HT1080 culture Present, Fraction # 13) was 61,704 ΔRFU, the Fluorescence change (qEV recovered liquid, Exo-FBS, HT1080 culture Present, Fraction # 14) was 76,810 ΔRFU and the Fluorescence change (qEV recovered liquid, MEM, HT1080 culture Present, Fraction # 1) was 245 ΔRFU. For the same substance, the Fluorescence change (qEV recovered liquid, MEM, HT1080 culture Present, Fraction # 2) was 285 ΔRFU, the Fluorescence change (qEV recovered liquid, MEM, HT1080 culture Present, Fraction # 3) was 245 ΔRFU and the Fluorescence change (qEV recovered liquid, MEM, HT1080 culture Present, Fraction # 4) was 304 ΔRFU. The Fluorescence change (qEV recovered liquid, MEM, HT1080 culture Present, Fraction # 5) was 1,450 ΔRFU, the Fluorescence change (qEV recovered liquid, MEM, HT1080 culture Present, Fraction # 6) was 697 ΔRFU and the Fluorescence change (qEV recovered liquid, MEM, HT1080 culture Present, Fraction # 7) was 10,198 ΔRFU. The Fluorescence change (qEV recovered liquid, MEM, HT1080 culture Present, Fraction # 8) was 11,966 ΔRFU, the Fluorescence change (qEV recovered liquid, MEM, HT1080 culture Present, Fraction # 9) was 1,424 ΔRFU and the Fluorescence change (qEV recovered liquid, MEM, HT1080 culture Present, Fraction # 10) was 550 ΔRFU. The Fluorescence change (qEV recovered liquid, MEM, HT1080 culture Present, Fraction # 11) was 506 ΔRFU, the Fluorescence change (qEV recovered liquid, MEM, HT1080 culture Present, Fraction # 12) was 536 ΔRFU and the Fluorescence change (qEV recovered liquid, MEM, HT1080 culture Present, Fraction # 13) was 489 ΔRFU. The Fluorescence change (qEV recovered liquid, MEM, HT1080 culture Present, Fraction # 14) was 446 ΔRFU.

Reference: patent publication US20250290928A1, “METHOD, KIT AND DEVICE FOR DETECTING EXTRACELLULAR VESICLES” (priority 2022, published 2025)
